{"source": "paper PMC8306139", "about": "“A Novel Dialkylamino-Functionalized Chalcone, DML6, Inhibits Cervical Cancer Cell Proliferation, In Vitro, via Induction of Oxidative Stress, Intrinsic Apoptosis and Mitotic Catastrophe” (Molecules, 2021)", "data": [{"test_system": "A549", "assay": "MTT assay, A549", "format": "cell-based", "settings": "Homo sapiens, A549, 72 h, read-out: IC50 ± SD Lung A549", "units": {"IC50": "µM"}, "protocol": "(§1) The concentration of the tested compounds that produced a 50% inhibition of cell growth (IC50) was determined.\n(§2) A panel of cancer cell lines, including cervical (OV2008 and HeLa), breast (MDA-MB-231), lung (A549) and colon (LOVO), prostate (DU145), human embryonic kidney cells (HEK293), human colon fibroblast cells (CRL1459), and Chinese hamster ovary cells (CHO), were grown as adherent monolayers in flasks containing Dulbecco’s modified Eagle medium (DMEM), supplemented with 10% fetal bovine serum (FBS) and 1% penicillin and streptomycin, in a humidified incubator with 5% CO2 at 37 °C.\n(§3) The cells were seeded evenly (180 μL/well) in 96-well plates, at a density of 3000–5000 cells/well and incubated with serial dilutions of the compounds ranging from 0.1 to 100 μM. The MTT dye (4 mg/ml) was added after 72 h of incubation and incubated with the cells for an additional 4 h at 37 °C, allowing the viable cells to biotransform the yellow-colored MTT into dark-blue formazan crystals. Following incubation, the medium was aspirated, and the formazan crystals were dissolved by adding 100 μL of DMSO to each well. Cytation™ 5 and Cytation™ 7 multi-mode detector (Bio Tek Instruments, Winooski, VT, USA) was used to determine the absorbance readings at a wavelength of 570 nm. The IC50 values were determined based on 3 separate experiments, with each experiment carried out in triplicate.", "values": [{"smiles": "CCN(CC)c1ccc(C2=NN(c3ccccc3)C(c3ccccn3)C2)cc1", "note": "(stereo not drawn) [DML8, N,N-diethyl-4-[1-phenyl-5-(pyridin-2-yl)-4,5-dihydro-1H-pyrazol-3-yl]aniline]", "IC50": "> 100"}, {"smiles": "COc1ccc(C(=O)/C=C/c2ccc(N(C)C)cc2)cc1", "note": "[DML3, (E)-3-[4-(dimethylamino)phenyl]-1-(4-methoxyphenyl)prop-2-en-1-one]", "IC50": "> 100"}, {"smiles": "CN(C)c1ccc(C2=NN(c3ccccc3)C(c3ccccn3)C2)cc1", "note": "(stereo not drawn) [DML7, N,N-dimethyl-4-[1-phenyl-5-(pyridin-2-yl)-4,5-dihydro-1H-pyrazol-3-yl]aniline]", "IC50": "> 100"}, {"smiles": "CCN(CC)c1ccc(C2=NN(c3ccccc3)C(c3ccc(OC)cc3)C2)cc1", "note": "(stereo not drawn) [DML11, N,N-diethyl-4-(5-(4-methoxyphenyl)-1-phenyl-4,5-dihydro-1H-pyrazol-3-yl)aniline]", "IC50": "> 100"}, {"smiles": "COc1ccc(C2CC(c3ccc(N(C)C)cc3)=NN2c2ccccc2)cc1OC", "note": "(stereo not drawn) [DML10, 4-(5-(3,4-dimethoxyphenyl)-1-phenyl-4,5-dihydro-1H-pyrazol-3-yl)-N,N-dimethylaniline]", "IC50": "> 100"}]}, {"test_system": "LOVO", "assay": "MTT assay, LOVO", "format": "cell-based", "settings": "Homo sapiens, LoVo, 72 h, read-out: IC50 ± SD Colon LOVO", "units": {"IC50": "µM"}, "protocol": "as §1, §2, §3", "values": [{"smiles": "CCN(CC)c1ccc(C2=NN(c3ccccc3)C(c3ccccn3)C2)cc1", "note": "(stereo not drawn) [DML8, N,N-diethyl-4-[1-phenyl-5-(pyridin-2-yl)-4,5-dihydro-1H-pyrazol-3-yl]aniline]", "IC50": "> 100"}, {"smiles": "COc1ccc(C(=O)/C=C/c2ccc(N(C)C)cc2)cc1", "note": "[DML3, (E)-3-[4-(dimethylamino)phenyl]-1-(4-methoxyphenyl)prop-2-en-1-one]", "IC50": "> 100"}, {"smiles": "CN(C)c1ccc(C2=NN(c3ccccc3)C(c3ccccn3)C2)cc1", "note": "(stereo not drawn) [DML7, N,N-dimethyl-4-[1-phenyl-5-(pyridin-2-yl)-4,5-dihydro-1H-pyrazol-3-yl]aniline]", "IC50": "> 100"}, {"smiles": "CCN(CC)c1ccc(C2=NN(c3ccccc3)C(c3ccc(OC)cc3)C2)cc1", "note": "(stereo not drawn) [DML11, N,N-diethyl-4-(5-(4-methoxyphenyl)-1-phenyl-4,5-dihydro-1H-pyrazol-3-yl)aniline]", "IC50": "> 100"}, {"smiles": "COc1ccc(C2CC(c3ccc(N(C)C)cc3)=NN2c2ccccc2)cc1OC", "note": "(stereo not drawn) [DML10, 4-(5-(3,4-dimethoxyphenyl)-1-phenyl-4,5-dihydro-1H-pyrazol-3-yl)-N,N-dimethylaniline]", "IC50": "> 100"}]}, {"test_system": "DU145", "assay": "MTT assay, DU145", "format": "cell-based", "settings": "Homo sapiens, DU-145, 72 h, read-out: IC50 ± SD Prostate DU145", "units": {"IC50": "µM"}, "protocol": "as §1, §2, §3", "values": [{"smiles": "CCN(CC)c1ccc(C2=NN(c3ccccc3)C(c3ccccn3)C2)cc1", "note": "(stereo not drawn) [DML8, N,N-diethyl-4-[1-phenyl-5-(pyridin-2-yl)-4,5-dihydro-1H-pyrazol-3-yl]aniline]", "IC50": "> 100"}, {"smiles": "COc1ccc(C(=O)/C=C/c2ccc(N(C)C)cc2)cc1", "note": "[DML3, (E)-3-[4-(dimethylamino)phenyl]-1-(4-methoxyphenyl)prop-2-en-1-one]", "IC50": "> 100"}, {"smiles": "CN(C)c1ccc(C2=NN(c3ccccc3)C(c3ccccn3)C2)cc1", "note": "(stereo not drawn) [DML7, N,N-dimethyl-4-[1-phenyl-5-(pyridin-2-yl)-4,5-dihydro-1H-pyrazol-3-yl]aniline]", "IC50": "> 100"}, {"smiles": "CCN(CC)c1ccc(C2=NN(c3ccccc3)C(c3ccc(OC)cc3)C2)cc1", "note": "(stereo not drawn) [DML11, N,N-diethyl-4-(5-(4-methoxyphenyl)-1-phenyl-4,5-dihydro-1H-pyrazol-3-yl)aniline]", "IC50": "> 100"}, {"smiles": "COc1ccc(C2CC(c3ccc(N(C)C)cc3)=NN2c2ccccc2)cc1OC", "note": "(stereo not drawn) [DML10, 4-(5-(3,4-dimethoxyphenyl)-1-phenyl-4,5-dihydro-1H-pyrazol-3-yl)-N,N-dimethylaniline]", "IC50": "> 100"}]}, {"test_system": "not given", "assay": "not given", "settings": "not given", "units": {"melting point": "°C"}, "values": [{"smiles": "CCN(CC)c1ccc(C2=NN(c3ccccc3)C(c3ccccn3)C2)cc1", "note": "(stereo not drawn) [DML8, N,N-diethyl-4-[1-phenyl-5-(pyridin-2-yl)-4,5-dihydro-1H-pyrazol-3-yl]aniline]", "melting point": 188}, {"smiles": "CN(C)c1ccc(C2=NN(c3ccccc3)C(c3ccccn3)C2)cc1", "note": "(stereo not drawn) [DML7, N,N-dimethyl-4-[1-phenyl-5-(pyridin-2-yl)-4,5-dihydro-1H-pyrazol-3-yl]aniline]", "melting point": 179}, {"smiles": "CCN(CC)c1ccc(C2=NN(c3ccccc3)C(c3ccc(OC)cc3)C2)cc1", "note": "(stereo not drawn) [DML11, N,N-diethyl-4-(5-(4-methoxyphenyl)-1-phenyl-4,5-dihydro-1H-pyrazol-3-yl)aniline]", "melting point": 121}, {"smiles": "COc1ccc(C2CC(c3ccc(N(C)C)cc3)=NN2c2ccccc2)cc1OC", "note": "(stereo not drawn) [DML10, 4-(5-(3,4-dimethoxyphenyl)-1-phenyl-4,5-dihydro-1H-pyrazol-3-yl)-N,N-dimethylaniline]", "melting point": 134}]}, {"test_system": "MDA-MB-231", "assay": "MTT assay, MDA-MB-231", "format": "cell-based", "settings": "Homo sapiens, MDA-MB-231, 72 h, read-out: IC50 ± SD Breast MDA-MB-231", "units": {"IC50": "µM"}, "protocol": "as §1, §2, §3", "values": [{"smiles": "CCN(CC)c1ccc(C2=NN(c3ccccc3)C(c3ccccn3)C2)cc1", "note": "(stereo not drawn) [DML8, N,N-diethyl-4-[1-phenyl-5-(pyridin-2-yl)-4,5-dihydro-1H-pyrazol-3-yl]aniline]", "IC50": "> 100"}, {"smiles": "COc1ccc(C(=O)/C=C/c2ccc(N(C)C)cc2)cc1", "note": "[DML3, (E)-3-[4-(dimethylamino)phenyl]-1-(4-methoxyphenyl)prop-2-en-1-one]", "IC50": "> 100"}, {"smiles": "CN(C)c1ccc(C2=NN(c3ccccc3)C(c3ccccn3)C2)cc1", "note": "(stereo not drawn) [DML7, N,N-dimethyl-4-[1-phenyl-5-(pyridin-2-yl)-4,5-dihydro-1H-pyrazol-3-yl]aniline]", "IC50": "> 100"}, {"smiles": "CCN(CC)c1ccc(C2=NN(c3ccccc3)C(c3ccc(OC)cc3)C2)cc1", "note": "(stereo not drawn) [DML11, N,N-diethyl-4-(5-(4-methoxyphenyl)-1-phenyl-4,5-dihydro-1H-pyrazol-3-yl)aniline]", "IC50": "> 100"}, {"smiles": "COc1ccc(C2CC(c3ccc(N(C)C)cc3)=NN2c2ccccc2)cc1OC", "note": "(stereo not drawn) [DML10, 4-(5-(3,4-dimethoxyphenyl)-1-phenyl-4,5-dihydro-1H-pyrazol-3-yl)-N,N-dimethylaniline]", "IC50": "> 100"}]}, {"test_system": "OV2008", "assay": "MTT assay, OV2008", "format": "cell-based", "settings": "72 h, read-out: IC50 ± SD Cervical OV2008", "units": {"IC50": "µM"}, "protocol": "as §1, §2\nThe cells were seeded evenly (180 μL/well) in 96-well plates, at a density of 3000–5000 cells/well and incubated with serial dilutions of the compounds ranging from 0.1 to 100 μM. The MTT dye (4 mg/ml) was added after 72 h of incubation and incubated with the cells for an additional 4 h at 37 °C, allowing the viable cells to biotransform the yellow-colored MTT into dark-blue formazan crystals. Following incubation, the medium was aspirated, and the formazan crystals were dissolved by adding 100 μL of DMSO to each well. Cytation™ 5 and Cytation™ 7 multi-mode detector (Bio Tek Instruments, Winooski, VT, USA) was used to determine the absorbance readings at a wavelength of 570 nm. The IC50 values were determined based on 3 separate experiments, with each experiment carried out in triplicate. The selectivity of the compounds was determined by comparing their IC50 values in cervical cancer compared to the normal epithelial cell lines, HEK293, CHO, and CRL1459.", "values": [{"smiles": "CCN(CC)c1ccc(C2=NN(c3ccccc3)C(c3ccccn3)C2)cc1", "note": "(stereo not drawn) [DML8, N,N-diethyl-4-[1-phenyl-5-(pyridin-2-yl)-4,5-dihydro-1H-pyrazol-3-yl]aniline]", "IC50": "> 100"}, {"smiles": "COc1ccc(C(=O)/C=C/c2ccc(N(C)C)cc2)cc1", "note": "[DML3, (E)-3-[4-(dimethylamino)phenyl]-1-(4-methoxyphenyl)prop-2-en-1-one]", "IC50": "> 100"}, {"smiles": "CN(C)c1ccc(C2=NN(c3ccccc3)C(c3ccccn3)C2)cc1", "note": "(stereo not drawn) [DML7, N,N-dimethyl-4-[1-phenyl-5-(pyridin-2-yl)-4,5-dihydro-1H-pyrazol-3-yl]aniline]", "IC50": "> 100"}, {"smiles": "CCN(CC)c1ccc(C2=NN(c3ccccc3)C(c3ccc(OC)cc3)C2)cc1", "note": "(stereo not drawn) [DML11, N,N-diethyl-4-(5-(4-methoxyphenyl)-1-phenyl-4,5-dihydro-1H-pyrazol-3-yl)aniline]", "IC50": "> 100"}, {"smiles": "COc1ccc(C2CC(c3ccc(N(C)C)cc3)=NN2c2ccccc2)cc1OC", "note": "(stereo not drawn) [DML10, 4-(5-(3,4-dimethoxyphenyl)-1-phenyl-4,5-dihydro-1H-pyrazol-3-yl)-N,N-dimethylaniline]", "IC50": "> 100"}]}, {"test_system": "HeLa", "assay": "MTT assay, HeLa", "format": "cell-based", "settings": "Homo sapiens, HeLa, 72 h, read-out: IC50 ± SD Cervical HeLa", "procedure": "Table S1. The antiproliferative efficacy of the DML1-DML12 compounds on the proliferation of cervical cancer cell line.\nFigure S1. The efficacy of DML6 in HeLa cancer cells. The cell-viability curve produced by HeLa cells treated with\nvehicle (0 μM), 5 or 10 μM of DML6 after 72 h of incubation. Cell survival was determined using the MTT assay. The\nIC50 values are represented as the means ± SD of three independent experiments performed in triplicate. […]", "units": {"IC50": "µM"}, "values": [{"smiles": "CCN(CC)c1ccc(C2=NN(c3ccccc3)C(c3ccccn3)C2)cc1", "note": "(stereo not drawn) [DML8, N,N-diethyl-4-[1-phenyl-5-(pyridin-2-yl)-4,5-dihydro-1H-pyrazol-3-yl]aniline]", "IC50": "> 100"}, {"smiles": "COc1ccc(C(=O)/C=C/c2ccc(N(C)C)cc2)cc1", "note": "[DML3, (E)-3-[4-(dimethylamino)phenyl]-1-(4-methoxyphenyl)prop-2-en-1-one]", "IC50": "> 100"}, {"smiles": "CN(C)c1ccc(C2=NN(c3ccccc3)C(c3ccccn3)C2)cc1", "note": "(stereo not drawn) [DML7, N,N-dimethyl-4-[1-phenyl-5-(pyridin-2-yl)-4,5-dihydro-1H-pyrazol-3-yl]aniline]", "IC50": "> 100"}, {"smiles": "CCN(CC)c1ccc(C2=NN(c3ccccc3)C(c3ccc(OC)cc3)C2)cc1", "note": "(stereo not drawn) [DML11, N,N-diethyl-4-(5-(4-methoxyphenyl)-1-phenyl-4,5-dihydro-1H-pyrazol-3-yl)aniline]", "IC50": "> 100"}, {"smiles": "COc1ccc(C2CC(c3ccc(N(C)C)cc3)=NN2c2ccccc2)cc1OC", "note": "(stereo not drawn) [DML10, 4-(5-(3,4-dimethoxyphenyl)-1-phenyl-4,5-dihydro-1H-pyrazol-3-yl)-N,N-dimethylaniline]", "IC50": "> 100"}]}, {"test_system": "HEK293", "assay": "MTT assay, HEK293", "format": "cell-based, human", "settings": "Homo sapiens, HEK293, 72 h, read-out: IC50 ± SD Kidney HEK293", "units": {"IC50": "µM"}, "protocol": "as §1, §2, §3", "values": [{"smiles": "CCN(CC)c1ccc(C2=NN(c3ccccc3)C(c3ccccn3)C2)cc1", "note": "(stereo not drawn) [DML8, N,N-diethyl-4-[1-phenyl-5-(pyridin-2-yl)-4,5-dihydro-1H-pyrazol-3-yl]aniline]", "IC50": "> 100"}, {"smiles": "COc1ccc(C(=O)/C=C/c2ccc(N(C)C)cc2)cc1", "note": "[DML3, (E)-3-[4-(dimethylamino)phenyl]-1-(4-methoxyphenyl)prop-2-en-1-one]", "IC50": "> 100"}, {"smiles": "CN(C)c1ccc(C2=NN(c3ccccc3)C(c3ccccn3)C2)cc1", "note": "(stereo not drawn) [DML7, N,N-dimethyl-4-[1-phenyl-5-(pyridin-2-yl)-4,5-dihydro-1H-pyrazol-3-yl]aniline]", "IC50": "> 100"}, {"smiles": "CCN(CC)c1ccc(C2=NN(c3ccccc3)C(c3ccc(OC)cc3)C2)cc1", "note": "(stereo not drawn) [DML11, N,N-diethyl-4-(5-(4-methoxyphenyl)-1-phenyl-4,5-dihydro-1H-pyrazol-3-yl)aniline]", "IC50": "> 100"}, {"smiles": "COc1ccc(C2CC(c3ccc(N(C)C)cc3)=NN2c2ccccc2)cc1OC", "note": "(stereo not drawn) [DML10, 4-(5-(3,4-dimethoxyphenyl)-1-phenyl-4,5-dihydro-1H-pyrazol-3-yl)-N,N-dimethylaniline]", "IC50": "> 100"}]}]}
